Measured values from ChEMBL document CHEMBL5030517, “6-Halopyridylmethylidene Penicillin-Based Sulfones Efficiently Inactivate the Natural Resistance of Pseudomonas aeruginosa to β-Lactam Antibiotics” (J Med Chem, 2021).
Values after ≈ are worked out from the molar mass of the structure shown.

Tests used:
Type in all cases: functional
[1] = test system: Pseudomonas aeruginosa; assay: Antipseudomonal activity against pseudomonas aeruginosa PAOdeltaC+pUCP-(PDC-1) assessed as AmpC RNA level relative to Pseudomonas aeruginosa PAO1
[2] = test system: Pseudomonas aeruginosa; assay: Antibacterial activity against Pseudomonas aeruginosa PAO1 deltaampD by broth microdilution method
[3] = test system: Pseudomonas aeruginosa; assay: Antibacterial activity against Pseudomonas aeruginosa PAO1 deltadacBdeltaampD by broth microdilution method
[4] = test system: Pseudomonas aeruginosa; assay: Antipseudomonal activity against pseudomonas aeruginosa PAOdeltaC+pUCP-(PDC-5) assessed as AmpC RNA level relative to Pseudomonas aeruginosa PAO1
[5] = test system: Pseudomonas aeruginosa; assay: Antibacterial activity against Pseudomonas aeruginosa PAO1 deltadacB by broth microdilution method
[6] = test system: Pseudomonas aeruginosa; assay: Antibacterial activity against Pseudomonas aeruginosa PAO1 by broth microdilution method
[7] = test system: Pseudomonas aeruginosa; assay: Antibacterial activity against Pseudomonas aeruginosa PAO1 deltaC+pUCP-(PDC-1) by broth microdilution method
[8] = test system: Pseudomonas aeruginosa; assay: Antipseudomonal activity against pseudomonas aeruginosa Pseudomonas aeruginosa 23/14-053 (ST-309) assessed as AmpC RNA level relative to Pseudomonas aeruginosa PAO1
[9] = test system: Pseudomonas aeruginosa; assay: Antipseudomonal activity against pseudomonas aeruginosa PAO deltadacBdeltaampD assessed as AmpC RNA expression by RT-PCR analysis Pseudomonas aeruginosa PAO1
[10] = test system: Pseudomonas aeruginosa; assay: Antipseudomonal activity against pseudomonas aeruginosa PAOdeltaampD AmpC RNA level assessed as AmpC RNA level relative to Pseudomonas aeruginosa PAO1
[11] = test system: Pseudomonas aeruginosa; assay: Antipseudomonal activity against pseudomonas aeruginosa PAO deltadacBdeltapbpGdeltadacC assessed as AmpC RNA level relative to Pseudomonas aeruginosa PAO1
[12] = test system: Pseudomonas aeruginosa; assay: Antipseudomonal activity against pseudomonas aeruginosa Pseudomonas aeruginosa 17/14-017 (ST-235) assessed as AmpC RNA level relative to Pseudomonas aeruginosa PAO1
[13] = test system: Pseudomonas aeruginosa; assay: Antipseudomonal activity against pseudomonas aeruginosa Pseudomonas aeruginosa 36/14-210 (ST-235) assessed as AmpC RNA level relative to Pseudomonas aeruginosa PAO1
[14] = test system: Pseudomonas aeruginosa; assay: Antibacterial activity against Pseudomonas aeruginosa PAO1 deltaDdeltsDh2deltaDh3 by broth microdilution method
[15] = test system: Pseudomonas aeruginosa; assay: Antipseudomonal activity against pseudomonas aeruginosa PAO deltaDdeltsDh2deltaDh3 assessed as AmpC RNA level relative to Pseudomonas aeruginosa PAO1
[16] = test system: Pseudomonas aeruginosa; assay: Antipseudomonal activity against pseudomonas aeruginosa Pseudomonas aeruginosa PAHUAC-14 (ST-966) assessed as AmpC RNA level relative to Pseudomonas aeruginosa PAO1
[17] = test system: Pseudomonas aeruginosa; assay: Antibacterial activity against Pseudomonas aeruginosa PAO1 36/14-210 (ST-235) by broth microdilution method
[18] = test system: Pseudomonas aeruginosa; assay: Antibacterial activity against Pseudomonas aeruginosa PAO1 PAHUAC-14 (ST-966) by broth microdilution method
[19] = test system: Pseudomonas aeruginosa; assay: Antipseudomonal activity against pseudomonas aeruginosa Pseudomonas aeruginosa 53/22-113 (ST-244) assessed as AmpC RNA level relative to Pseudomonas aeruginosa PAO1
[20] = test system: Pseudomonas aeruginosa; assay: Antibacterial activity against Pseudomonas aeruginosa PAO1 deltadacBdeltapbpGdeltadacC by broth microdilution method
[21] = test system: Pseudomonas aeruginosa; assay: Antibacterial activity against Pseudomonas aeruginosa PAO1 6/04-224 (ST-175) by broth microdilution method
[22] = test system: Pseudomonas aeruginosa; assay: Antibacterial activity against PAOdeltaC by broth microdilution method
[23] = test system: Pseudomonas aeruginosa; assay: Antipseudomonal activity against pseudomonas aeruginosa Pseudomonas aeruginosa PAHUAC-27(ST-22) assessed as AmpC RNA level relative to Pseudomonas aeruginosa PAO1
[24] = test system: Pseudomonas aeruginosa; assay: Antibacterial activity against Pseudomonas aeruginosa PAO1 53/22-113 (ST-244) by broth microdilution method
[25] = test system: Pseudomonas aeruginosa; assay: Antipseudomonal activity against pseudomonas aeruginosa PAO1 AmpC RNA level assessed as AmpC RNA level relative to Pseudomonas aeruginosa PAO1
[26] = test system: Pseudomonas aeruginosa; assay: Antipseudomonal activity against pseudomonas aeruginosa PAOdeltaC AmpC RNA level assessed as AmpC RNA level relative to Pseudomonas aeruginosa PAO1
[27] = test system: Pseudomonas aeruginosa; assay: Antibacterial activity against Pseudomonas aeruginosa PAO1 23/14-053 (ST-309) by broth microdilution method
[28] = test system: Pseudomonas aeruginosa; assay: Antibacterial activity against Pseudomonas aeruginosa PAO1 17/14-017 (ST-235) by broth microdilution method
[29] = test system: Pseudomonas aeruginosa; assay: Antipseudomonal activity against pseudomonas aeruginosa Pseudomonas aeruginosa 13/09-018 (ST-175) assessed as AmpC RNA level relative to Pseudomonas aeruginosa PAO1
[30] = test system: Pseudomonas aeruginosa; assay: Antibacterial activity against Pseudomonas aeruginosa PAO1 13/09-018 (ST-175) by broth microdilution method
[31] = test system: Pseudomonas aeruginosa; assay: Antibacterial activity against Pseudomonas aeruginosa PAO1 PAHUAC-27(ST-22) by broth microdilution method
[32] = test system: Pseudomonas aeruginosa; assay: Antipseudomonal activity against pseudomonas aeruginosa PAO deltadacBdeltadacC assessed as AmpC RNA expression by RT-PCR analysis relative to Pseudomonas aeruginosa PAO1
[33] = test system: Pseudomonas aeruginosa; assay: Antibacterial activity against Pseudomonas aeruginosa PAO1 deltaC+pUCP-(PDC-5) by broth microdilution method
[34] = test system: Pseudomonas aeruginosa; assay: Antipseudomonal activity against pseudomonas aeruginosa Pseudomonas aeruginosa 6/04-224 (ST-175) assessed as AmpC RNA level relative to Pseudomonas aeruginosa PAO1
[35] = test system: Pseudomonas aeruginosa; assay: Antibacterial activity against Pseudomonas aeruginosa PAO1 deltadacBdeltadacC by broth microdilution method
[36] = test system: Pseudomonas aeruginosa; assay: Antipseudomonal activity against Pseudomonas aeruginosa PAO1 deltadacB assessed as AmpC RNA expression by RT-PCR analysis relative to Pseudomonas aeruginosa PAO1

For CC(C)(O/N=C(\C(=O)N[C@@H]1C(=O)N2C(C(=O)[O-])=C(C[n+]3ccccc3)CS[C@H]12)c1csc(N)n1)C(=O)O [CEFTAZIDIME], the “fold change (FC)” value [1] was 1933.4, the MIC [2] was 16 µg/mL (≈ 29.3 µM) and the MIC [3] was 32 µg/mL (≈ 58.5 µM). The “fold change (FC)” value [4] was 4084.8, the MIC [5] was 16 µg/mL (≈ 29.3 µM) and the MIC [6] was 1 µg/mL (≈ 1.83 µM). The MIC [7] was 16 µg/mL (≈ 29.3 µM), the “fold change (FC)” value [8] was 6.4 and the “fold change (FC)” value [9] was 1021.4. For the same compound, the “fold change (FC)” value [10] was 51.4, the “fold change (FC)” value [11] was 1109.9 and the “fold change (FC)” value [12] was 32.8. For the same compound, the “fold change (FC)” value [13] was 18.6, the MIC [14] was 32 µg/mL (≈ 58.5 µM) and the “fold change (FC)” value [15] was 1030.2. The “fold change (FC)” value [16] was 586.3, the MIC [17] was 128 µg/mL (≈ 234 µM) and the MIC [18] was 64 µg/mL (≈ 117 µM). For the same compound, the “fold change (FC)” value [19] was 1415.3, the MIC [20] was 16 µg/mL (≈ 29.3 µM) and the MIC [21] was 32 µg/mL (≈ 58.5 µM). The MIC [22] was 1 µg/mL (≈ 1.83 µM), the “fold change (FC)” value [23] was 326.4 and the MIC [24] was 64 µg/mL (≈ 117 µM). For the same compound, the “fold change (FC)” value [25] was 1, the “fold change (FC)” value [26] was 0 and the MIC [27] was 8 µg/mL (≈ 14.6 µM). For the same compound, the MIC [28] was 16 µg/mL (≈ 29.3 µM), the “fold change (FC)” value [29] was 2.4 and the MIC [30] was 8 µg/mL (≈ 14.6 µM). The MIC [31] was 32 µg/mL (≈ 58.5 µM), the “fold change (FC)” value [32] was 472.3 and the MIC [33] was 16 µg/mL (≈ 29.3 µM). The “fold change (FC)” value [34] was 10.1, the MIC [35] was 16 µg/mL (≈ 29.3 µM) and the FC [36] was 36 µg/mL.
